The test system of one data set is Phytophthora infestans. Type of data set: in vivo.
A further data set relates to Pyrenophora teres. Briefly: Example D: Pyrenophora test (barley) / preventive. Format: in vivo.
Data set [1] in a line: Determination of log P values by HPLC on a reverse phase column (C18), EEC-Directive 79/831 Annex V.A8 (Methods A, B, C). The conditions noted are these: for chromatographic logP: reverse phase C18 HPLC column. Type of data set: physicochemical. In a few lines:
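LogP was determined by C18 reverse-phase HPLC/UPLC with acetonitrile/water eluents containing formic acid. Method A used a 10–95% acetonitrile gradient over 4.25 min at 55 °C and 2.0 mL/min. Method B used 5–95% over 1.70 min at 55 °C and 2.0 mL/min, and Method C used 10–95% over 3.25 min at 40 °C and 0.8 mL/min, with MS detection.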

The test system of data set [2] is Fusarium nivale (var. majus). Briefly: Example K: Fusarium nivale (var. majus) test (wheat) / preventive. Format: in vivo. The conditions noted are these: 500 ppm of active ingredient, preventive spray, evaluated 5 days after inoculation. The method, then: After the spray coating has been dried, the plants are slightly injured by using a sandblast and afterwards they are sprayed with a conidia suspension of Fusarium nivale (var. majus).
The test is evaluated 5 days after the inoculation.

In the next data set the test system is Septoria tritici. Briefly: Example J: Septoria tritici test (wheat) / preventive. Type of data set: in vivo.
The test system of the next data set is Leptosphaeria nodorum. The data set is described as follows: Example C: Leptosphaeria test (wheat) / preventive. Type of data set: in vivo.
In the next data set the test system is Plasmopara viticola. The data set is described as follows: Example H: Plasmopara test (grapevines) / preventive. Type of data set: in vivo.
For the next data set, the system named is Sphaerotheca fuliginea. The data set is described as follows: Example A: Sphaerotheca test (cucumber) / preventive. Type of data set: in vivo.
Data set [3] has as its system DON/Acetyl-DON production by Fusarium graminearum. Briefly: microbe, parasite or virus in culture. Format: cell-based.
Another data set relates to Uromyces appendiculatus. The data set is described as follows: Example B: Uromyces test (beans) / preventive. Type of data set: in vivo.
In data set [4] the test system is Fusarium graminearum. Format: in vivo.
The next data set deals with Pyricularia oryzae. Type of data set: in vivo.
The next data set deals with Venturia inaequalis. The data set is described as follows: Example I: Venturia test (apples) / preventive. The conditions noted are these: 100 ppm of active ingredient, preventive spray, evaluated 10 days after inoculation.
In data set [5] the test system is Fusarium graminearum. The data set is described as follows: microbe, parasite or virus in culture. Type of data set: cell-based. Particulars: for Growth inhibition of Fusarium graminearum in %: at 50 μM.
The subject of a further data set is Puccinia recondita. Briefly: Example E: Puccinia test (wheat) / preventive. Type of data set: in vivo.
Setting [6] is: 100 ppm of active ingredient, tomatoes, preventive spray, evaluated 3 days after inoculation.
Where [7] appears, read: 500 ppm of active ingredient, barley, preventive spray, evaluated 7-9 days after inoculation.
The mark [8] stands for this setting: pH 2.7, values in the synthesis examples, HPLC, reverse phase C18, read-out: log P (pH 2.7).
Setting [9] is: 500 ppm of active ingredient, wheat, preventive spray, evaluated 21 days after inoculation.
Setting [10] is: 500 ppm of active ingredient, wheat, preventive spray, evaluated 7-9 days after inoculation.
Setting [11] is: 100 ppm of active ingredient, grapevines, preventive spray, evaluated 6 days after inoculation.
The mark [12] stands for this setting: 500 ppm of active ingredient, cucumber, preventive spray, evaluated 7 days after inoculation.
[13] abbreviates: 500 ppm of active ingredient, barley, preventive spray, evaluated 5 days after inoculation.
The mark [14] stands for this setting: 500 ppm of active ingredient, rice, preventive spray, evaluated 7 days after inoculation.
The mark [15] stands for this setting: Method B (HPLC, reverse phase C18).
The mark [16] stands for this setting: Method A: HPLC, reverse phase C18, acetonitrile (0.1% formic acid)/water (0.09% formic acid) gradient.

Like-named read-outs stand apart in the source and are kept apart here.

In general, LogP refers to the decadic logarithm of the partition coefficient of the neutral form, usually between octanol and water. High values mean a more lipophilic compound, low ones a more hydrophilic compound.

Experimental for Venturia inaequalis: After the spray coating has dried on, the plants are inoculated with an aqueous conidia suspension of the causal agent of apple scab (Venturia inaequalis) and then remain for 1 day in an incubation cabinet at approximately 20° C. and a relative atmospheric humidity of 100%.
The plants are then placed in a greenhouse at approximately 21° C. and a relative atmospheric humidity of approximately 90%.
The test is evaluated 10 days after the inoculation.

As to `O=C(Nc1cc(-c2c(-c3ccc(F)cc3)nn3c2OCCC3)ccn1)C1CC1` [Example 4, N-{4-[2-(4-fluorophenyl)-6,7-dihydro-5H-pyrazolo[5,1-b][1,3]oxazin-3-yl]pyridin-2-yl}cyclo-propanecarboxamide], the efficacy in the data set with Phytophthora infestans (setting [6]) came to 94%; with Pyrenophora teres (setting [7]) it was 100%; in [2] it was 100%; in the data set on Septoria tritici (setting [9]) it was 80%; in the data set with Leptosphaeria nodorum (setting [10]), 90%; with Plasmopara viticola (setting [11]), 100%. The efficacy in the data set on Sphaerotheca fuliginea (setting [12]) is 100%; in the data set on Uromyces appendiculatus (500 ppm of active ingredient, beans, preventive spray, evaluated 6-8 days after inoculation) it was 90%; in the data set on Fusarium graminearum [4] (setting [13]), 100%; with Pyricularia oryzae (setting [14]), 100%; in the data set on Venturia inaequalis it was 95%; in the data set on Puccinia recondita (setting [10]), 100%. For the same molecule, the chromatographic logP in [1] (Method B (HPLC, reverse phase C18), read-out: LogP) is 1.47; in data set [1] (setting [8]), 1.39. For the same molecule, the inhibition at 50 µM is 99% in data set [3] (Fusarium graminearum, at 50 μM, read-out: Inhibition of DON/AcDON in %) and 69% with Fusarium graminearum [5] (Fusarium graminearum, read-out: Growth inhibition of Fusarium graminearum in %).

As for `CCC(=O)Nc1cc(-c2c(-c3ccccc3)nn3c2OCCC3)ccn1` [Example 6], the efficacy in the data set with Phytophthora infestans (in vivo) is given as 96%; in the data set on Pyrenophora teres (in vivo), 95%; in data set [2], 100%; with Septoria tritici (in vivo), 100%; in the data set with Leptosphaeria nodorum (in vivo), 90%; with Plasmopara viticola (in vivo), 94%. In addition, the efficacy in the data set with Sphaerotheca fuliginea (in vivo) is listed as 98%; with Uromyces appendiculatus (in vivo), 89%; in the data set with Fusarium graminearum [4] (in vivo), 100%; with Pyricularia oryzae (in vivo), 94%; with Venturia inaequalis, 100%; in the data set on Puccinia recondita (in vivo), 100%. The same molecule had a LogP in data set [1] (setting [15]) of 1.16.

As for `CC(C)C(=O)Nc1cc(-c2c(-c3ccccc3)nn3c2OCCC3)ccn1` [Example 8], the efficacy is on record as 95% in the data set with Phytophthora infestans (in vivo); 95% in the data set with Pyrenophora teres (in vivo); 93% in data set [2]; 80% with Septoria tritici (in vivo); 95% in the data set with Leptosphaeria nodorum (in vivo); 100% with Plasmopara viticola (in vivo). The efficacy with Sphaerotheca fuliginea (in vivo) amounted to 100%; with Uromyces appendiculatus (in vivo), 94%; with Fusarium graminearum [4] (in vivo), 100%; with Pyricularia oryzae (in vivo) it was 94%; in the data set with Venturia inaequalis, 98%; in the data set with Puccinia recondita (in vivo), 100%. Besides, the LogP in [1] (setting [15]) is 1.39.

Turning to `CC(C)CC(=O)Nc1cc(-c2c(-c3ccc(F)cc3)nn3c2OCCC3)ccn1` [Example 25], the efficacy came out at 93% in the data set with Phytophthora infestans (in vivo); 100% in the data set with Pyrenophora teres (in vivo); 100% in data set [2]; 80% in the data set on Septoria tritici (in vivo); 95% in the data set with Leptosphaeria nodorum (in vivo); 98% in the data set with Plasmopara viticola (in vivo). Moreover, the efficacy came to 100% in the data set with Sphaerotheca fuliginea (in vivo); 94% with Uromyces appendiculatus (in vivo); 100% with Fusarium graminearum [4] (in vivo); 100% in the data set on Pyricularia oryzae (in vivo); 100% in the data set with Venturia inaequalis; 100% in the data set with Puccinia recondita (in vivo). In [1] (setting [15]), the LogP is 1.82.

As for `CCC(=O)Nc1cc(-c2c(-c3ccc(F)cc3F)nn3c2OCCC3)ccn1` [Example 35], the efficacy with Phytophthora infestans (in vivo) turned out to be 99%; with Pyrenophora teres (in vivo), 95%; in [2], 100%; in the data set on Septoria tritici (in vivo), 100%; in the data set on Leptosphaeria nodorum (in vivo), 80%; in the data set with Plasmopara viticola (in vivo) it was 95%. Also, the efficacy in the data set with Uromyces appendiculatus (in vivo) is given as 92%; with Fusarium graminearum [4] (in vivo) it was 100%; with Pyricularia oryzae (in vivo), 94%; in the data set with Venturia inaequalis it was 100%; with Puccinia recondita (in vivo), 100%. In [1] (setting [15]), the LogP worked out at 1.34. In addition, the “Inhibition of DON/AcDON in %” value in [3] (at 50 μM) is listed as 99%. In the data set on Fusarium graminearum [5], the “Growth inhibition of Fusarium graminearum in %” value was 100%.

With `CC(C)C(=O)Nc1cc(-c2c(-c3ccc(F)cc3F)nn3c2OCCC3)ccn1` [Example 37], the efficacy in the data set on Phytophthora infestans (in vivo) came to 95%; in the data set with Pyrenophora teres (in vivo), 95%; in data set [2] it was 100%; in the data set with Septoria tritici (in vivo), 88%; in the data set with Leptosphaeria nodorum (in vivo), 70%; in the data set with Plasmopara viticola (in vivo), 100%. Also, the efficacy in the data set on Sphaerotheca fuliginea (in vivo) came out at 100%; with Uromyces appendiculatus (in vivo), 94%; in the data set with Fusarium graminearum [4] (in vivo), 100%; with Pyricularia oryzae (in vivo), 94%; in the data set with Venturia inaequalis, 100%; in the data set with Puccinia recondita (in vivo) it was 100%. This molecule also registered a LogP in [1] (setting [15]) of 1.6.

For `CCC(=O)N(C(C)=O)c1cc(-c2c(-c3ccc(F)cc3)nn3c2OCCC3)ccn1` [Example 52], the efficacy in the data set on Phytophthora infestans (in vivo) worked out at 95%; in the data set with Pyrenophora teres (in vivo) it was 95%; in data set [2] it was 100%; with Septoria tritici (in vivo), 100%; in the data set on Leptosphaeria nodorum (in vivo) it was 80%; with Plasmopara viticola (in vivo), 84%. Further, the efficacy in the data set on Sphaerotheca fuliginea (in vivo) turned out to be 95%; in the data set with Fusarium graminearum [4] (in vivo), 100%; in the data set with Pyricularia oryzae (in vivo), 95%; in the data set on Venturia inaequalis, 98%; in the data set on Puccinia recondita (in vivo) it was 95%. In data set [1] (setting [16]), this molecule registered a LogP of 2.4.

For `CCC(=O)N(C(=O)C1CC1)c1cc(-c2c(-c3ccc(F)cc3)nn3c2OCCC3)ccn1` [Example 54], the efficacy in the data set with Phytophthora infestans (in vivo) amounted to 99%; in the data set with Pyrenophora teres (in vivo) it was 95%; in data set [2] it was 100%; in the data set on Septoria tritici (in vivo) it was 100%; in the data set on Leptosphaeria nodorum (in vivo), 80%; in the data set with Plasmopara viticola (in vivo), 100%. Further, the efficacy is on record as 100% with Sphaerotheca fuliginea (in vivo); 100% in the data set on Fusarium graminearum [4] (in vivo); 90% in the data set on Pyricularia oryzae (in vivo); 95% in the data set on Venturia inaequalis; 95% in the data set on Puccinia recondita (in vivo). In [1] (setting [16]), this molecule gave a LogP of 2.77.

Take `CC(C)C(=O)Nc1cc(-c2c(-c3ccc(F)cc3)nn3c2OCCC3C)ccn1` (stereo not drawn) [Example 62]: the efficacy with Phytophthora infestans (in vivo) is 95%; in the data set with Pyrenophora teres (in vivo) it was 95%; in data set [2] it was 100%; in the data set with Septoria tritici (in vivo), 75%; in the data set with Plasmopara viticola (in vivo), 100%; with Sphaerotheca fuliginea (in vivo), 100%. Besides, the efficacy with Uromyces appendiculatus (in vivo) was found to be 78%; with Fusarium graminearum [4] (in vivo), 100%; in the data set on Pyricularia oryzae (in vivo), 95%; in the data set on Venturia inaequalis, 100%; with Puccinia recondita (in vivo), 90%. In data set [1] (setting [16]), the LogP turned out to be 1.86. In data set [3] (at 50 μM), the “Inhibition of DON/AcDON in %” value is 99%. For the same molecule, the “Growth inhibition of Fusarium graminearum in %” value in the data set with Fusarium graminearum [5] came to 86%.

Turning to `CCC(=O)Nc1cc(-c2c(-c3ccc(F)cc3)nn3c2OCCC3C)ccn1` (stereo not drawn) [Example 63, N-{4-[2-(4-fluorophenyl)-7-methyl-6,7-dihydro-5H-pyrazolo[5,1-b][1,3]oxazin-3-yl]pyridin-2-yl}propanamide], the efficacy in the data set on Phytophthora infestans (setting [6]) worked out at 95%; in the data set on Pyrenophora teres (setting [7]) it was 100%; in data set [2], 100%; in the data set on Septoria tritici (setting [9]), 94%; with Plasmopara viticola (setting [11]), 95%; in the data set with Sphaerotheca fuliginea (setting [12]) it was 95%. Besides, the efficacy in the data set on Fusarium graminearum [4] (setting [13]) was determined as 88%; with Pyricularia oryzae (setting [14]), 95%; in the data set with Venturia inaequalis it was 100%; with Puccinia recondita (setting [10]), 80%. Further, the chromatographic logP in [1] (Method A: HPLC, reverse phase C18, acetonitrile (0.1% formic acid)/water (0.09% formic acid) gradient, read-out: LogP) worked out at 1.61; in data set [1] (setting [8]), 1.61.

`CC(=O)Nc1cc(-c2c(-c3cccs3)nn3c2OC[Si](C)(C)C3)ccn1` [Example 85]: the efficacy with Phytophthora infestans (in vivo) is recorded as 95%; in the data set on Pyrenophora teres (in vivo), 95%; in [2], 100%; in the data set with Septoria tritici (in vivo) it was 86%; in the data set on Leptosphaeria nodorum (in vivo), 90%; with Plasmopara viticola (in vivo), 97%. Besides, the efficacy with Fusarium graminearum [4] (in vivo) was determined as 71%; with Pyricularia oryzae (in vivo), 90%; in the data set with Venturia inaequalis, 97%; in the data set on Puccinia recondita (in vivo), 78%. The molecule also yielded a LogP in data set [1] (Method C (HPLC, reverse phase C18)) of 1.74. Besides, the “Inhibition of DON/AcDON in %” value in [3] (50 µM) was 99%.

Source of the values: patent US9023844B2, “Heterocyclylpyri (mi) dinylpyrazole as fungicidals” (Bayer Intellectual Property GmbH, priority 2011, dated 2015).
